We go through four compounds from patent US11453689B2, “3-pyrrolidine-indole derivatives as serotonergic psychedelic agents for the treatment of CNS disorders” (Mindset Pharma Inc., priority 2020, dated 2022).

Data set [1] is described as follows: Human liver microsomes stability with NADPH. The note with it: for Remaining Percentage (%) after 60 min, Human: human liver microsomes, with NADPH, 2 μM; for half-life at 2 μM / microsomal CLint at 2 μM: human, microsomes. On the procedure: (§1) The objective of this study was to estimate in vitro metabolic stability of exemplary compounds in pooled human, male rat and male mouse liver microsomes. The concentrations of exemplary compounds in reaction systems were evaluated by LC-MS/MS for estimating the stability in pooled human, male rat and male mouse liver microsomes. The in vitro intrinsic clearances of test compounds were determined as well.
(§2) A master solution in the “Incubation Plate” containing phosphate buffer, ultra-pure H2O, MgCl2 solution and liver microsomes was made according to Table 3. The mixture was pre-warmed at 37° C. water bath for 5 minutes.
(§3) 40 μL of 10 mM NADPH solution was added to each well. The final concentration of NADPH was 1 mM. The negative control samples were prepared by replacing NADPH with 40 μL of ultra-pure H2O. Samples were prepared in duplicate. Negative controls were prepared in singlet.
(§4) The reaction was started with the addition of 4 μL of 200 μM exemplary test compounds or control compounds to each master solution to get the final concentration of 2 μM. This study was performed in duplicate.
(§5) Aliquots of 50 μL were taken from the reaction solution at 0, 15, 30, 45 and 60 minutes. The reaction solutions were stopped by the addition of 4 volumes of cold methanol with IS (100 nM alprazolam, 200 nM imipramine, 200 nM labetalol and 2 μM ketoprofen). Samples were centrifuged at 3,220 g for 40 minutes. Aliquot of 90 μL of the supernatant was mixed with 90 μL of ultra-pure H2O and then was used for LC-MS/MS analysis.
(§6) LC/MS analysis was performed for all samples from this study using a Shimadzu liquid chromatograph separation system equipped with degasser DGU-20A5R; solvent delivery unit LC-30AD; system controller SIL-30AC; column oven CTO-30A; CTC Analytics HTC PAL System. Mass spectrometric analysis was performed using an Triple Quad™ 5500 instrument.
(§7) All calculations were carried out using Microsoft Excel. Peak areas were determined from extracted ion chromatograms. The slope value, k, was determined by linear regression of the natural logarithm of the remaining percentage of the parent drug vs. incubation time curve.
(§8) Conversion of the in vitro t1/2 (min) into the in vitro intrinsic clearance (in vitro CLint, in μL/min/mg proteins) was done using the following equation (mean of duplicate determinations): […]

Data set [2] has as its target human 5-HT2A (h5-HT2A) receptor (Homo sapiens (Human), UniProt P28223). The data set can be described thus: FLIPR calcium assay, human 5-HT2A receptor, agonist mode. It is filed as cell-based. The method, then:
I. Assessment of the Activated Effect of Exemplary Compounds of Formula I Targeting on Human 5-HT2A (h5-HT2A) Receptor Under Agonist Mode:
1. Culture the cells in cell culture medium (DMEM containing 10% FBS, 1× penicillin-streptomycin 300 μg/ml G418 and 100 μg/ml hygromycin B) at 37° C., 5% (v/v) CO2.
2. One day before the assays, detach the cell using TrypLE™ Express and count cells using cell counter.
3. Seed 20000 cells/well in 30 μl/well culture medium to a 384-well cell plate and incubate the cells overnight at 37° C., 5% (v/v) CO2.
4. On the assay day, prepare 2×dye solution following the manual of the FLIPR® Calcium 6 Assay Kit: i. Dilute the dye with assay buffer(20 mM HEPES in 1× HBSS, PH7.4); ii. Add probenecid to the final concentration of 5 mM; iii. Vortex vigorously for 1-2 minutes.
5. Medium from cell plate by flicking the cell plate on towel papers.
6. Add 10 μl of assay buffer and 10 μl of 2×dye solution to each well of the cell plate.
7. Put the cell plate on plate shaker, agitate the plate at 600 rpm for 2 minutes. Incubate the plate at 37° C. for 2 hours followed by additional 15-minute incubation at 25° C.
8. Prepare 3×compound in assay buffer: a. Dilute reference compounds to required concentration with DMSO. Add the compounds to a 384-well compound plate; b. Perform serial dilutions; c. Add 10 mM test compounds to the compound plate, perform 3-fold serial dilutions. d. […] Add 20 μl/well assay buffer to the compound plate; f. Mix the plate on plate shaker for 2 mins;
i. The normalized fluorescence reading (RFU) is calculated as shown follow, while Fmax and Fmin stand for maximum and minimum of calcium signal during defined time window: RFU=Fmax−Fmin
ii. Calculate the percentage activation by using following equation: […]
iii. Calculate EC50 by fitting % activation against log of compound concentrations with Hill equation using XLfit.

Data set [3] concerns the target human 5-HT2A receptor (Homo sapiens (Human), UniProt P28223). Briefly: Radioligand ([3H]-ketanserin) binding assay on human 5-HT2A receptor. The method, then: i. Prepare the assay buffer following the table below;
ii. Preparation of 8 doses of reference and exemplary test compounds starting from 10 mM stock solution as requested by 5-fold serial dilutions with 100%;
iii. […] a. Add 50 μl/well of 0.5% (v/v) PEI to UniFilter-96 GF/B plates. Seal the plates and incubate at 4° C. for 3 hrs; b. After incubation, wash the plates 3 times with ice-cold wash buffer (50 mM Tris, pH7.4);
iv. Preparation of assay plates: a. Dilute cell membrane with assay buffer and add 330 μl/well to 96 round deep well plates to reach a concentration of 20 μg/well; b. Prepare 8 concentrations of reference or exemplary test compounds and add 110 μl/well to 96 round deep well plates; c. Dilute [3H]-ketanserin with assay buffer to 5 nM (5× final concentration) and add 110 μl/well to 96 round deep well plates.
v. Centrifuge the plate at 1000 rpm for 30 secs and then agitate at 600 rpm, R.T. for 5 min.
vi. Seal the plates and incubate the plate at 27° C. for 90 min.
vii. Stop the incubation by vacuum filtration onto GF/B filter plates followed by 4 times washing with ice-cold wash buffer (50 mM Tris, pH7.4).
ix. Seal the filter plates and add 40 μl/well of scintillation cocktail.
x. Read the plate by using a Microbeta2 microplate counter.
For reference and exemplary test compounds, the results are expressed as % Inhibition, using the normalization equation: N=100−100×(U−C2)/(C1−C2), where U is the unknown value, C1 is the average of high controls, and C2 is the average of low controls. The IC50 is determined by fitting percentage of inhibition as a function of compound concentrations with Hill equation using XLfit.

Data set [4] can be described thus: Mouse liver microsomes stability with NADPH. The note with it: for half-life at 2 μM / microsomal CLint at 2 μM: male, mouse, microsomes; for Remaining Percentage (%) after 60 min, Mouse: mouse liver microsomes, with NADPH, 2 μM. The method, then:
as §1, §2, §3, §4, §5, §6, §7, §8
Background: Microsomes from liver hold many membrane-bound enzymes, among them those of drug oxidation.

Data set [5] can be described thus: Rat liver microsomes stability with NADPH. Conditions: for half-life at 2 μM / microsomal CLint at 2 μM: male, rat, microsomes; for Remaining Percentage (%) after 60 min, Rat: rat liver microsomes, with NADPH, 2 μM. The method, then: as §1, §2, §3, §4, §5, §6, §7, §8
Data set [6] relates to head-twitch response (HTR) in male C57BL6 mice. Briefly: Mouse head-twitch response (HTR). It is filed as in vivo. Conditions: M100907 0.5 mg/kg IP before I-2 10 mg/kg SC. The method, then: Male, C57BL/6J mice (body weight range 20-30 g) were dosed with the appropriate dose of test article, and following a 1-minute pre-treatment time, placed in individual observation chambers. Animals were visually assessed for the incidence head twitches continuously over a 1 hr period. Head twitches were defined as a rapid jerk of the head which was not elicited by an external tactile stimulus (Come and Pickering, Psychopharmacologia, 1967, 11(1): 65-78). Each head twitch was individually counted by a trained observer, and the data expressed as the mean±SEM of 6-10 mice per group. Mice were used in a single experiment only.
The effect of various doses of exemplary compound of Formula I, I-2, on head-twitch response (HTR) in male C57BL6 mice were measured. The mice were treated with compound I-2 (0.03-10 mg/kg, SC) by SC route (N=6 mice/dose), and the total number of head twitches were recorded over a 1h period. Data is expressed as mean±SEM. The induction of head twitches elicited by 5-HT2A receptor agonists is believed to represent a behavioural proxy of their psychedelic effects.
To evaluate the involvement of 5-HT2A receptor on the HTR induced by exemplary compounds of Formula I, mice were pretreated with the selective 5-HT2AR antagonist M100907 (also known as volinanserin) prior to the administration of exemplary compounds of Formula I, for example, 1-2 (10 mg/kg SC).

The conditions of data set [7]: tobacco use disorder, cited from earlier work.

The structures appear in SMILES notation. Where two headings read alike, the source gives them in different places.

As for `[2H]C([2H])(c1c[nH]c2cccc(OC(=O)CCCCCCC/C=C\C/C=C\CCCCC)c12)[C@H]1CCCN1C([2H])([2H])[2H]` [Compound I-49, 3-(((R)-1-(methyl-d3)pyrrolidin-2-yl)methyl-d2)-1H-indol-4-yl (9Z,12Z)-octadeca-9,12-dienoate], in data set [1], the “Remaining Percentage (%) after 60 min, Human” value turned out to be 86.81%; the half-life (as a rule, the time in which the quantity being followed falls by half) at 2 μM worked out at 4.9 h; the microsomal CLint (commonly the capacity of the preparation to metabolise the compound, expressed as a volume cleared per time) at 2 μM amounted to 4.72 µL/min/mg. Moreover, the EC50 (as a rule, the concentration giving half of the maximal effect) in data set [2] (FLIPR, agonist mode, read-out: h5-HT2A EC50) lay within 1 to 10 µM. The IC50 (in general, the concentration that inhibits the measured activity by half) in data set [3] ([3H]-ketanserin competition binding, read-out: h5-HT2A IC50) is less than 0.5 µM. In addition, in data set [4], the half-life at 2 μM was 0.347 h; the microsomal CLint at 2 μM was found to be 66.5 µL/min/mg; the “Remaining Percentage (%) after 60 min, Mouse” value was 13.60%. For the same compound, in data set [5], the half-life at 2 μM turned out to be 0.807 h; the microsomal CLint at 2 μM was determined as 28.6 µL/min/mg; the “Remaining Percentage (%) after 60 min, Rat” value stood at 42.38%.

As to `[2H]C([2H])(c1c[nH]c2cccc(O)c12)[C@H]1CCCN1` [Compound I-50, (R)-3-(pyrrolidin-2-ylmethyl-d2)-1H-indol-4-ol], in data set [1], the “Remaining Percentage (%) after 60 min, Human” value was found to be 69.29%; the half-life at 2 μM came to 1.89 h; the microsomal CLint at 2 μM is 12.2 µL/min/mg. Further, the EC50 in data set [2] was less than 1 µM. Moreover, the IC50 in data set [3] was in the range of 0.5 to 5 µM. Further, in data set [4], the half-life at 2 μM came out at 1.24 h; the microsomal CLint at 2 μM amounted to 18.6 µL/min/mg; the “Remaining Percentage (%) after 60 min, Mouse” value was 57.27%. In data set [5], the half-life at 2 μM was 0.662 h; the microsomal CLint at 2 μM came to 34.9 µL/min/mg; the “Remaining Percentage (%) after 60 min, Rat” value came to 34.11%.

Consider `COc1cccc([C@H](O)C2CCN(CCc3ccc(F)cc3)CC2)c1OC` [Compound M100907, reference compound], for which, in data set [6], the “effect of I-2 on HTR after pretreatment with 5-HT2A antagonist M100907” value is reported as “completely blocked”.

Turning to `CN(C)CCc1c[nH]c2cccc(OP(=O)(O)O)c12` [psilocybin, 4-phosphoryloxy-N,N-dimethyltrypatmine], the figures for the abstinence rate in data set [7] (12 months follow-up) and in data set [7] (six months follow-up) were 67% and 80%, respectively.
